According to ChEMBL document CHEMBL1201862, “PubChem BioAssay data set” (2004):
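Step 1: Grow cells in 96-well plates. Step 2: Expose to compound for 48 hours at 5 concentrations. Step 3: Interpolate endpoints linearly; if unreached, use highest concentration. Abbreviation: GI50, concentration required for 50% inhibition of growth.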 Calls of active or inactive are those of the source. Rule as the data show it: active = GI50 up to about 1.1 µM and inactive = higher.

Assays:
Assay in all cases: growth of human tumour cells (NCI), 48 h
M19-MEL = test system: M19-MEL
DLD-1 = test system: DLD-1
MDA-N = test system: MDA-N
XF498 = test system: XF498
DMS-273 = test system: DMS-273
SNB-78 = test system: SNB-78
KM-20L2 = test system: KM-20L2
LXFL 529 = test system: LXFL 529

`C=C1[C@@H](C)[C@H]2[C@H](Cc3ccccc3)NC(=O)[C@]23OC(=O)/C=C/[C@H](O)CCC[C@@H](C)C/C=C/[C@H]3[C@@H]1O` was tested, and the GI50 (M19-MEL) was 45.8 µM (inactive), the GI50 (DLD-1) was 0.828 µM (active) and the GI50 (MDA-N) was 14.2 µM (inactive). The GI50 (XF498) was 0.571 µM (active), the GI50 (DMS-273) was 8.93 µM (inactive) and the GI50 (SNB-78) was 1.03 µM (active). For the same compound, the GI50 (KM-20L2) was 15.2 µM (inactive).
With `COc1ccc(CC2C(=O)NC(C)C(=O)N(C)C3C(=O)N(C)C(Cc4ccc(O)c(c4)Oc4ccc(cc4)C3O)C(=O)NC(C)C(=O)NC(C)C(=O)N2C)cc1` (stereo not drawn) the GI50 (M19-MEL) was 0.013 µM (active), the GI50 (DLD-1) was 0.321 µM (active) and the GI50 (XF498) was 0.0131 µM (active). The GI50 (DMS-273) was 0.0123 µM (active), the GI50 (SNB-78) was 0.00188 µM (active) and the GI50 (KM-20L2) was 0.0246 µM (active).
With `C=CCOC1=C(OC(C)=O)C(=O)OC1C1COC(C)(C)O1` (stereo not drawn) the GI50 (MDA-N) was 30.1 µM (inactive).
For `O=[N+]([O-])c1ccc2sc(/C=N/c3ccccn3)cc2c1`, the GI50 (MDA-N) was > 100 µM (inactive).
In the case of `CC1(C)C2CCC(N)(C2)C1N` (stereo not drawn), the GI50 (MDA-N) is reported as > 100 µM (inactive).
`C=C[Si](C)(C)COC(=O)/C(C#N)=C/C=C/c1ccccc1` was tested, and the GI50 (M19-MEL) was 99.5 µM (inactive), the GI50 (DLD-1) was > 100 µM (inactive) and the GI50 (DMS-273) was 85.7 µM (inactive). The GI50 (SNB-78) was > 100 µM (inactive), the GI50 (LXFL 529) was 47.5 µM (inactive) and the GI50 (KM-20L2) was > 100 µM (inactive).
With `CC12CC(=O)NN=C1c1ccccc1C2` (stereo not drawn) the GI50 (M19-MEL) was > 100 µM (inactive), the GI50 (DLD-1) was > 100 µM (inactive) and the GI50 (XF498) was > 100 µM (inactive). The GI50 (DMS-273) was > 100 µM (inactive), the GI50 (SNB-78) was > 100 µM (inactive) and the GI50 (KM-20L2) was > 100 µM (inactive).
In the case of `CC(NC1=CC(=O)c2cccnc2C1=O)C(O)c1ccccc1` (stereo not drawn), the GI50 (MDA-N) is reported as 0.57 µM (active).
In the case of `N=C(N)NS(=O)(=O)c1ccc(NC(=O)c2ccc3nc4ccccc4c(Nc4ccc(S(=O)(=O)N=C(N)N)cc4)c3c2)cc1`, the GI50 (MDA-N) is reported as > 100 µM (inactive).
In the case of `CC(C)(C)c1cc(C(C)(C)C)c2c(c1O)OC(=O)CS2`, the GI50 (MDA-N) is reported as 3.67 µM (inactive).
`O=C1Nc2cc(Cl)ccc2C(=O)N2CCC[C@@H]12` was tested, and the GI50 (MDA-N) was > 100 µM (inactive).
In the case of `O=C(Cn1c(=O)oc2ccc(C(=O)c3ccccc3Cl)cc21)c1ccc([N+](=O)[O-])cc1`, the GI50 (MDA-N) is reported as 18.1 µM (inactive).
`c1ccc(-c2ccc(/N=N/N3CCCC3)cc2)cc1` was tested, and the GI50 (MDA-N) was > 100 µM (inactive).
`COc1cc2c(cc1OC)CC(=O)c1cc(OC)c(OC)cc1/C=C\2` was tested, and the GI50 (MDA-N) was 2.8 µM (inactive).
In the case of `O=C1C2=C(N[C@@H](c3ccccc3)[C@H](c3ccccc3)N2)C(=O)c2ccccc21`, the GI50 (M19-MEL) is reported as > 100 µM (inactive), the GI50 (DLD-1) is reported as > 100 µM (inactive) and the GI50 (XF498) is reported as > 100 µM (inactive). For the same compound, the GI50 (DMS-273) was > 100 µM (inactive), the GI50 (SNB-78) was > 100 µM (inactive) and the GI50 (LXFL 529) was > 100 µM (inactive).
In the case of `COC(=O)/C=C/c1cnc2c(c1)oc(=O)n2C`, the GI50 (MDA-N) is reported as > 100 µM (inactive).
In the case of `S=C(N/N=C(/c1ccccc1)c1ccccn1)N1CCCCCC1`, the GI50 (MDA-N) is reported as < 0.044 µM (active).
`O=c1cc(NCC2CCCCC2)[nH]c(=O)[nH]1` was tested, and the GI50 (MDA-N) was > 100 µM (inactive).
With `N#CC1=C(N)OC(c2cccc([N+](=O)[O-])c2)C1(C#N)C#N` (stereo not drawn) the GI50 (MDA-N) was 23.9 µM (inactive).
In the case of `CC1=CC(O)C(C(O)(C(F)(F)F)C(F)(F)F)C(C)(C)C1` (stereo not drawn), the GI50 (MDA-N) is reported as > 10 µM (inactive).
In the case of `O=C(O)CN1CCNCCN(CC(=O)O)CC1`, the GI50 (MDA-N) is reported as 11.4 µM (inactive).
`COc1ccc([N+]2=NC(c3ccc([N+](=O)[O-])cc3)=NN(c3ccccc3)C2)cc1` was tested, and the GI50 (DLD-1) was 26.5 µM (inactive), the GI50 (XF498) was 55.6 µM (inactive) and the GI50 (DMS-273) was > 10 µM (inactive). The GI50 (SNB-78) was > 100 µM (inactive), the GI50 (LXFL 529) was 27.1 µM (inactive) and the GI50 (KM-20L2) was 49.4 µM (inactive).
